TGI and GI50 data for five compounds are collected here from PubChem BioAssay (NCI).

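Following 48 hours of exposure in 96-well plates, responses at five concentrations were used to interpolate endpoints linearly. Here, GI50 denotes the concentration required for 50% inhibition of growth. TGI: concentration producing complete growth inhibition.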 Where a SMILES comes first, the peptide text is derived from it. Bridges are numbered along the chain shown (N, C = ends). Roman numbers before positions name the chains, in order. [ ]: non-standard residue; d: D form. The star is where a group is joined. Heptadecanoyl = CCCCCCCCCCCCCCCCC(=O)*; Phg = N[CH](C(=O)O)c1ccccc1

Among the test systems are HOP-92 NSCLC; SNB-75 CNS; SNB-19 CNS; T-47D breast; DU-145 prostate; SF-295 CNS; TK-10 renal; MOLT-4 leukemia; HT29 colon; SK-OV-3 ovarian.
Experiment in all cases: inhibition of tumour cell growth, NCI panel, 48 h

For the compound `Nc1nc(Cl)nc2c1ncn2C1CCC(CO)O1` (stereo not given), the TGI with HOP-92 NSCLC, in the assay with SNB-75 CNS, in the assay on SNB-19 CNS, in the assay on T-47D breast, in the assay with DU-145 prostate and in the assay with SF-295 CNS was greater than 100 µM throughout. In addition, the TGI in the assay with TK-10 renal, in the assay with MOLT-4 leukemia, with HT29 colon and with SK-OV-3 ovarian was greater than 100 µM each time.

Take `CN(C)C(=S)SCc1ccccc1`: the TGI was greater than 100 µM in the assay on HOP-92 NSCLC; 70.3 µM in the assay on SNB-75 CNS; greater than 100 µM in the assay on SNB-19 CNS; 60.6 µM in the assay with T-47D breast; greater than 100 µM in the assay with DU-145 prostate; greater than 100 µM in the assay on SF-295 CNS. In addition, the TGI in the assay with TK-10 renal, in the assay with HT29 colon and in the assay with SK-OV-3 ovarian was greater than 100 µM each time.

As for `Cc1cccc(C(O)c2ccccn2)c1O` (stereo not given), the TGI in the assay on SNB-75 CNS, in the assay with SNB-19 CNS, with T-47D breast, in the assay on DU-145 prostate, in the assay with SF-295 CNS and with TK-10 renal was greater than 100 µM in each case. Besides, the TGI in the assay with MOLT-4 leukemia and with HT29 colon was greater than 100 µM each time.

With `N#CC(C#N)=Cc1ccc(-c2ccc(-c3nc4ccccc4s3)cc2)s1`, the GI50 in the assay with SNB-75 CNS was 37.5 µM; with SNB-19 CNS, 30 µM; in the assay on T-47D breast, 18.2 µM; in the assay on DU-145 prostate, 17.7 µM; in the assay on SF-295 CNS, 22.6 µM; with TK-10 renal it was 22.7 µM. The GI50 in the assay on MOLT-4 leukemia was 22.8 µM; with HT29 colon, 29.7 µM; with SK-OV-3 ovarian, 19.7 µM. For the same compound, the TGI was greater than 100 µM with SNB-75 CNS; greater than 100 µM in the assay with SNB-19 CNS; 73.8 µM with T-47D breast; 44.8 µM in the assay on DU-145 prostate; 59.1 µM in the assay with SF-295 CNS; 47.4 µM with TK-10 renal. Besides, the TGI in the assay on MOLT-4 leukemia is 68.5 µM; in the assay with HT29 colon, greater than 100 µM; in the assay with SK-OV-3 ovarian, 50.5 µM.

Regarding `CCCCCCCCCCCCCCCCC(=O)N1CCCC1C(=O)NCC(=O)NC(C(=O)N1CCCC1C(=O)NC(CO)C(=O)NC(Cc1ccc(O)cc1)C(=O)NC(CCCCNC(=O)C1CCCN1C(=O)C(CCCCN)NC(=O)C(CCCCN)NC(=O)C(CCCCN)NC(=O)C(CCCNC(=N)N)NC(=O)C(CCCCN)NC(=O)C(N)C(C)C)C(=O)NC(CC(C)C)C(=O)NC(CCCNC(=N)N)C(=O)N1CCCC1C(=O)NCC(N)=O)c1ccccc1` (stereo not given) (I: Heptadecanoyl-PG[Phg]PSYKLRPG-NH2 / II: H-VKRKKKP; amide I:7-II:C; configuration not given here), the GI50 in the assay with HOP-92 NSCLC is 30.4 µM; in the assay on SNB-75 CNS, 54.2 µM; in the assay with SNB-19 CNS, 31.2 µM; with T-47D breast, 5.38 µM; in the assay on DU-145 prostate it was 24.6 µM; in the assay with SF-295 CNS, 25 µM. Also, the GI50 was 26.5 µM in the assay with TK-10 renal, 16.3 µM in the assay on MOLT-4 leukemia, 29.6 µM with HT29 colon and 23.1 µM in the assay with SK-OV-3 ovarian. Also, the TGI with HOP-92 NSCLC is 83 µM; with SNB-75 CNS it was greater than 100 µM; with SNB-19 CNS, 84.1 µM; in the assay on T-47D breast it was 70.7 µM; with DU-145 prostate it was 61.5 µM; with SF-295 CNS, 80.1 µM. The TGI in the assay with TK-10 renal is 66.6 µM; in the assay on MOLT-4 leukemia it was 44.8 µM; in the assay with HT29 colon, greater than 100 µM; with SK-OV-3 ovarian, 51.4 µM.
